Consider seven compounds from patent publication US8853423B2, “Indane estrogen receptor modulators and uses thereof” (Seragon Pharmaceuticals, Inc., priority 2010, dated 2014).

Holding throughout (format): cell-based
Test [1] relates to MCF-7 cells. Kind of test: Breast Cancer Cell Viability Assay (MCF7 Viability Assay, CellTiter-Glo). As to conditions: 5 days' compound exposure; for IC50: Homo sapiens, MCF7, 120 h. As to the method:
MCF-7 cells were adjusted to a concentration of 20,000 cells per mL in RPMI containing 10% FBS and 20 mM HEPES. 16 microliters of the cell suspension (320 cells) was added to each well of a 384 well plate, and the cells were incubated overnight to allow the cells to adhere. The following day an eleven point, serial semilog dilution of each compound was added to the cells in 16 μL at a final concentration ranging from 0.3-0.000003 μM. After 5 days' compound exposure, 16 μL of CellTiter-GLo (Promega, Madison Wis.) was added to the cells the relative luminescence units (RLUs) of each well was determined. CellTiter-Glo added to 32 μL of medium without cells was used to obtain a background value. The Percent viability of each sample was determined as follows: (RLU sample-RLU background/RLU untreated cells-RLU background)×100=% viability.
Background: In ATP-based viability assays light output follows the ATP content of the culture.

Test [2] concerns the target T1, ER-α (Homo sapiens, UniProt P03372).
T1 construct: endogenous in cells; host or cells: MCF-7
T1 sequence (P03372 1-595): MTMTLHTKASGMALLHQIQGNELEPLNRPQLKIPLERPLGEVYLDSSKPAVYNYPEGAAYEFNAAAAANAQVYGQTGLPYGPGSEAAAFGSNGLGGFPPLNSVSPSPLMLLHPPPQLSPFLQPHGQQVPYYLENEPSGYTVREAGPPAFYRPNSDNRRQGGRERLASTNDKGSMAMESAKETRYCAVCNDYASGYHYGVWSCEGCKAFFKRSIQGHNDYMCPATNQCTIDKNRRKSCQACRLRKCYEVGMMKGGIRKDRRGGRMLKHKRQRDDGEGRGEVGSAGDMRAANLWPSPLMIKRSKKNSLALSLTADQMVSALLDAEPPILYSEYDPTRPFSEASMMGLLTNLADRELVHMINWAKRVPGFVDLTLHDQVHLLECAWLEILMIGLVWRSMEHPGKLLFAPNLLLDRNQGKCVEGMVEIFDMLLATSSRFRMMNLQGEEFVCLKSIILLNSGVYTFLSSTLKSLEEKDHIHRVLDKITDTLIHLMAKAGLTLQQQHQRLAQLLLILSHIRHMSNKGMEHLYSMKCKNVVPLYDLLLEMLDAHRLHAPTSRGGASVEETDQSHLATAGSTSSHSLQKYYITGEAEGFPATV
Briefly: ER-α in Cell Western Assay (ER1D5). As to conditions: MCF-7 cells, ER1D5 antibody, 4 or 24 hr post compound addition, read-out: ER In-Cell Western Assay (ER1D5); for Emax: MCF7, Max Response; for DC50: IC50. As to the method: (§1) MCF-7 cells were adjusted to a concentration of 200,000 cells per mL in RPMI containing 10% charcoal-stripped FBS and 20 mM HEPES. 16 microliters of the cell suspension (3200 cells) was added to each well of a poly-D-lysine 384 well plate, and the cells were incubated overnight to allow the cells to adhere. The following day an eleven point, serial semilog dilution of each compound was added to the cells in 16 μL at a final concentration ranging from 0.3-0.000003 μM. At 4 or 24 hr post compound addition, the cells were fixed (10% formalin in PBS) for 20 minutes. Cells were permeabalized in PBS 0.1% Triton and blocked with LICOR blocking buffer (50 μl/well, 90′). The wells were then incubated overnight at 4° C. with ER1D5 (Santa Cruz Biotechnology) diluted 1:100 in LICOR blocking buffer/0.1% Tween-20. Wells which were treated with blocking buffer with Tween but no antibody were used as a background control. Wells were washed with 0.1% Tween-20/PBS and then incubated in goat anti-mouse IRDye™ 800CW (LICOR Inc.; 1:1000) and DRAQ5 DNA dye (1:2000 for 2 mM stock) diluted in LICOR blocking buffer containing 0.1% Tween-20 and 0.01% SDS for 60 minutes. Cells were washed (50 μl/well, 5′ each) in 0.1% Tween-20/PBS. Plates were scanned on a LICOR Odyssey infrared imaging system. Integrated intensities in the 800 nm channel and 700 nm channel were measured to determine levels of ER and DNA respectively. Percent ER levels were determined as follows: (Integrated intensity 800 nm sample/integrated intensity 700 nm sample)/(Integrated intensity 800 nm untreated cells/integrated intensity 700 nm untreated cells)×100=% ER levels.

Test [3] has as its target T1, ER-α. Kind of test: ER-α in Cell Western Assay (SP1). As to conditions: MCF-7 cells, SP1 rabbit monoclonal Ab, 4 or 24 hr post compound addition, read-out: ER In-Cell Western Assay (SP1); for Emax: MCF7, Max Response; for DC50: IC50. As to the method:
as §1, with “with SP1 rabbit monoclonal Ab (Thermo Scientific)” for “with ER1D5 (Santa Cruz Biotechnology)”, “diluted 1:1000” for “diluted 1:100”, “goat anti-rabbit” for “goat anti-mouse”

As to `Oc1ccc(C2Cc3cc(O)ccc3C2c2ccc(OCCN3CCCC3)cc2)cc1` (stereo not drawn) [Example 1, 2-(4-Hydroxyphenyl)-1-(4-(2-(pyrrolidin-1-yl)ethoxy)phenyl)-2,3-dihydro-1H-inden-5-ol], in test [1], the “MCF7 Viability Assay Max Response” value is “++ (++ = a single % value ≧50%)” and the IC50 is at most 1 nM. Further, in test [2], the Emax was 40 to 65% and the DC50 is at most 1 nM. Moreover, in test [3], the Emax was 60 to 85% and the DC50 was at most 1 nM.
As for `C[C@@H]1CCN([C@@H](C)COc2ccc(C3c4ccc(O)cc4CC3c3ccc(O)cc3)cc2)C1` (stereo partly drawn) [Example 2, 2-(4-Hydroxyphenyl)-1-(4-((S)-2-((R)-3-methylpyrrolidin-1-yl)propoxy)phenyl)-2,3-dihydro-1H-inden-5-ol], in test [1], the “MCF7 Viability Assay Max Response” value is “++ (++ = a single % value ≧50%)” and the IC50 is at most 1 nM. Further, in test [2], the Emax was at least 65% and the DC50 was at most 1 nM. Also, in test [3], the Emax is at least 85% and the DC50 was at most 1 nM.
As for `C[C@@H]1CCN([C@@H](C)COc2ccc(C3c4ccc(O)cc4CC3c3cccc(O)c3)cc2)C1` (stereo partly drawn) [Example 3, 2-(3-Hydroxyphenyl)-1-(4-((S)-2-((R)-3-methylpyrrolidin-1-yl)propoxy)phenyl)-2,3-dihydro-1H-inden-5-ol], in test [1], the “MCF7 Viability Assay Max Response” value was “++ (++ = a single % value ≧50%)” and the IC50 is at most 1 nM. In test [2], the Emax is at least 65% and the DC50 is at most 1 nM. Moreover, in test [3], the Emax was at least 85% and the DC50 was at most 1 nM.
Consider `C[C@@H]1CCN([C@@H](C)COc2ccc(C3c4ccc(O)cc4CC3c3ccccc3)cc2)C1` (stereo partly drawn) [Example 4, 1-(4-((S)-2-((R)-3-Methylpyrrolidin-1-yl)propoxy)phenyl)-2-phenyl-2,3-dihydro-1H-inden-5-ol], for which, in test [1], the “MCF7 Viability Assay Max Response” value is “++ (++ = a single % value ≧50%)” and the IC50 was at most 1 nM. Besides, in test [2], the Emax is at least 65% and the DC50 is at most 1 nM. Besides, in test [3], the Emax was at least 85% and the DC50 is at most 1 nM.
In the case of `C[C@@H]1CCN([C@@H](C)COc2ccc(C3c4ccc(O)c(F)c4CC3c3ccc(O)cc3)cc2)C1` (stereo partly drawn) [Example 5, 4-Fluoro-2-(4-hydroxyphenyl)-1-(4-((S)-2-((R)-3-methylpyrrolidin-1-yl)propoxy)phenyl)-2,3-dihydro-1H-inden-5-ol], in test [1], the “MCF7 Viability Assay Max Response” value is “++ (++ = a single % value ≧50%)” and the IC50 was at most 1 nM. In test [3], the Emax is at least 85% and the DC50 is at most 1 nM.
For `C[C@@H]1CCN([C@@H](C)COc2ccc(C3c4ccc(O)cc4CC3c3ccc(F)cc3)cc2)C1` (stereo partly drawn) [Example 6, 2-(4-Fluorophenyl)-1-(4-((S)-2-((R)-3-methylpyrrolidin-1-yl)propoxy)phenyl)-2,3-dihydro-1H-inden-5-ol], in test [1], the “MCF7 Viability Assay Max Response” value is reported as “++ (++ = a single % value ≧50%)” and the IC50 was above 1 nM. For the same compound, in test [3], the Emax was at least 85% and the DC50 was at most 1 nM.
Regarding `Oc1ccc2c(c1)CC(c1ccccc1)C2c1ccc(OCCN2CCCC2)cc1` (stereo not drawn) [Example 7, 2-Phenyl-1-(4-(2-(pyrrolidin-1-yl)ethoxy)phenyl)-2,3-dihydro-1H-inden-5-ol], in test [1], the “MCF7 Viability Assay Max Response” value was “++ (++ = a single % value ≧50%)” and the concentration for half-maximal inhibition (IC50) is above 1 nM. Also, in test [3], the Emax was in the range of 60 to 85% and the DC50 was at most 1 nM.

The IC50 is the concentration that gives 50% inhibition. Lower therefore signals greater potency.
